Reference: patent US8580965B2, “Substituted sulfonamide compounds” (Gruenenthal GmbH, priority 2006, dated 2013)

Target: T1, human B1R receptor (bradykinin 1 receptor) (Homo sapiens, UniProt P46663)
T1 construct: host or cells: CHO K1 cells (hB1R cells)
T1 sequence (P46663 1-353): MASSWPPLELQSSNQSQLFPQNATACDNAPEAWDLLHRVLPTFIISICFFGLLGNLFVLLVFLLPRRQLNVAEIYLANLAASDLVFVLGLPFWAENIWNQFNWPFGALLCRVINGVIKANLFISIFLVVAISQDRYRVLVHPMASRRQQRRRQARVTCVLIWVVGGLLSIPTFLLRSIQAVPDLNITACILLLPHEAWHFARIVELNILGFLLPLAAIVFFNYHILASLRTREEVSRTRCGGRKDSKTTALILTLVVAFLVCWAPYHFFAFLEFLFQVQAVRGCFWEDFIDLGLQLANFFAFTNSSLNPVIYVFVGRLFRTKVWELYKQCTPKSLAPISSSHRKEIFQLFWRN
Test: FLIPR Ca2+ assay (Fluo-4) on CHO K1 cells stably transfected with the human B1R gene; % activation and % inhibition at 10 μM
Type: cell-based
Details: CHO-K1, test substance 10 μM; CHO K1 hB1R cells; Ca2+ inflow after 0.5 nM Lys-Des-Arg9-bradykinin; read-out: B1R antagonism, human [10 μM] % inhibition
Method: The agonistic or antagonistic action of substances can be quantified on the bradykinin receptor 1 (B1R) of the species human and rat with ectopically expressing cell lines (CHO K1 cells) and with the aid of a Ca^2+-sensitive dye (Fluo-4) using a fluorescent imaging plate reader (FLIPR). The indication in % activation is based on the Ca^2+ signal after addition of Lys-Des-Arg^9-bradykinin (0.5 nM) or Des-Arg^9-bradykinin (100 nM). Antagonists result in a suppression of the Ca^2+ influx following administration of the agonist. The % inhibition in comparison with the maximum achievable inhibition is indicated.
Functional Investigation on the Bradykinin 1 Receptor (B1R)
The agonistic or antagonistic action of substances can be determined on the bradykinin 1 receptor (B1R) of the human and rat species with the following assay. According to this assay, the Ca^2+ inflow through the channel is quantified with the aid of a Ca^2+-sensitive dyes (Fluo-4 type, Molecular Probes Europe BV, Leiden, The Netherlands) in a fluorescent imaging plate reader (FLIPR, Molecular Devices, Sunnyvale, USA).
Chinese Hamster Ovary cells (CHO K1 cells) which are stably transfected with the human B1R gene (hB1R cells, Euroscreen s.a., Gosselies, Belgium) or the B1R gene of the rat (rB1R cells, Axxam, Milan, Italy) are used. For functional investigations, these cells are plated-out on black 96-well plates with a clear base (BD Biosciences, Heidelberg, Germany) in a density of 20,000-25,000 cells/well. Overnight, the cells are incubated at 37° C. and 5% CO2 in culture medium (hB1R cells: Nutrient Mixture Ham's F12, Gibco Invitrogen GmbH, Karlsruhe, Germany; rB1R cells: D-MEM/F12, Gibco Invitrogen, Karlsruhe, Germany) with 10 vol. % FBS (foetal bovine serum, Gibco Invitrogen GmbH, Karlsruhe, Germany). On the following day, the cells are loaded with 2.13 μM Fluo-4 (Molecular Probes Europe BV, Leiden, The Netherlands) in HBSS buffer (Hank's buffered saline solution, Gibco Invitrogen GmbH, Karlsruhe, Germany) […] (Sigma-Aldrich, Taufkirchen, Germany) and 10 mM HEPES (Sigma-Aldrich, Taufkirchen, Germany) for 60 min at 37° C. The plates are subsequently washed 2× with HBSS buffer, and HBSS buffer which additionally contains 0.1% BSA (bovine serum albumin; Sigma-Aldrich, Taufkirchen, Germany), 5.6 mM glucose and 0.05% gelatine (Merck KGaA, Darmstadt, Germany) is added. After a further incubation of 20 minutes at room temperature, the plates are inserted into the FLIPR for Ca^2+ measurement. The Ca^2+-dependent fluorescence is measured here before and after addition of substances (λex=488 nm, λem=540 nm). The quantification is effected by measurement of the highest fluorescence intensity (FC, fluorescence counts) over time.
The FLIPR protocol comprises 2 additions of substance. Test substances (10 μM) are first pipetted on to the cells and the Ca^2+ inflow is compared with the control (hB1R: Lys-Des-Arg^9-bradykinin 0.5 nM; rB1R: Des-Arg^9-bradykinin 100 nM). The value in % activation based on the Ca^2+ signal after addition of Lys-Des-Arg^9-bradykinin (0.5 nM) or Des-Arg^9-bradykinin (100 nM) is obtained therefrom. After incubation for 10 minutes, 0.5 nM Lys-Des-Arg^9-bradykinin (hB1R) or 100 nM Des-Arg^9-bradykinin (rB1R) are applied and the inflow of Ca^2+ is likewise determined. Antagonists lead to a suppression of the Ca^2+ inflow. % inhibition compared with the maximum inhibition which can be achieved is calculated. The compounds show a good activity on the human and on the rat receptor. The following data were determined by way of example: […]

SMILES | inhibition at 10 µM [%]
COc1cc(C)c(S(=O)(=O)N2CCCC(OCC(=O)N3CCC(O)(Cc4ccccc4)CC3)C2)c(C)c1C (stereo not shown) [Example 11, 1-(4-benzyl-4-hydroxy-piperidin-1-yl)-2-[1-(4-methoxy-2,3,6-trimethyl-phenylsulfonyl)-piperidin-3-yloxy]-ethanone] | 70.9
O=C(COCC1CCCCN1S(=O)(=O)c1ccc(Cl)c(Cl)c1)N1CCC(O)(c2cccnc2)CC1 (stereo not shown) [Example 12, 2-[1-(3,4-dichloro-phenylsulfonyl)-piperidin-2-ylmethoxy]-1-(4′-hydroxy-3′,4′,5′,6′-tetrahydro-2′H-[3,4′]bipyridinyl-1′-yl)-ethanone] | 55.1
COc1cc(C)c(S(=O)(=O)N(CCOCC(=O)N2CCC(O)(Cc3ccccc3)CC2)Cc2ccccc2)c(C)c1C [Example 13, N-benzyl-N-{2-[2-(4-benzyl-4-hydroxy-piperidin-1-yl)-2-oxo-ethoxy]-ethyl}-4-methoxy-2,3,6-trimethyl-phenylsulfonamide] | 50.7
COc1cc(C)c(S(=O)(=O)N2CCC(CCOCC(=O)N3CCC(O)(Cc4ccccc4)CC3)CC2)c(C)c1C [Example 14, 1-(4-benzyl-4-hydroxy-piperidin-1-yl)-2-{2-[1-(4-methoxy-2,3,6-trimethyl-phenylsulfonyl)-piperidin-4-yl]-ethoxy}-ethanone] | 43.2
O=C(COC1CCN(S(=O)(=O)c2ccc(F)cc2)C1)N1CCC(O)(Cc2ccccc2)CC1 (stereo not shown) [Example 15, 1-(4-benzyl-4-hydroxy-piperidin-1-yl)-2-[1-(4-fluoro-phenylsulfonyl)-pyrrolidin-3-yloxy]-ethanone] | 40.2
COc1ccc(S(=O)(=O)N(C)CCOCC(=O)N2CCC(O)(Cc3ccccc3)CC2)cc1OC [Example 16, N-{2-[2-(4-benzyl-4-hydroxy-piperidin-1-yl)-2-oxo-ethoxy]-ethyl}-3,4-dimethoxy-N-methyl-phenylsulfonamide] | 31.2
COc1cc(C)c(S(=O)(=O)N2CCN(CCOCC(=O)N3CCC(O)(Cc4ccccc4)CC3)CC2)c(C)c1C [Example 18, 1-(4-benzyl-4-hydroxy-piperidin-1-yl)-2-{2-[4-(4-methoxy-2,3,6-trimethyl-phenylsulfonyl)-piperazin-1-yl]-ethoxy}-ethanone] | 23.5
O=C(COCC1CCCN1S(=O)(=O)c1ccc(Cl)c(Cl)c1)N1CCC(O)(c2cccnc2)CC1 (stereo not shown) [Example 19, 2-[1-(3,4-dichloro-phenylsulfonyl)-pyrrolidin-2-ylmethoxy]-1-(4′-hydroxy-3′,4′,5′,6′-tetrahydro-2′H-[3,4′]bipyridinyl-1′-yl)-ethanone] | 23.2
O=C(COC1CCN(S(=O)(=O)c2ccccc2)C1)N1CCC(O)(Cc2ccccc2)CC1 (stereo not shown) [Example 22, 2-(1-phenylsulfonyl-pyrrolidin-3-yloxy)-1-(4-benzyl-4-hydroxy-piperidin-1-yl)-ethanone] | 20.2
O=C(COCC1CCCCN1S(=O)(=O)c1ccc(Cl)c(Cl)c1)N1CCC(O)(c2ccccn2)CC1 (stereo not shown) [Example 25, 2-[1-(3,4-dichloro-phenylsulfonyl)-piperidin-2-ylmethoxy]-1-(4′-hydroxy-3′,4′,5′,6′-tetrahydro-2′H-[2,4′]bipyridinyl-1′-yl)-ethanone] | 10
O=C(COC1CCCN(S(=O)(=O)c2ccccc2)C1)N1CCC(O)(Cc2ccccc2)CC1 (stereo not shown) [Example 27, 2-(1-phenylsulfonyl-piperidin-3-yloxy)-1-(4-benzyl-4-hydroxy-piperidin-1-yl)-ethanone] | 9.32
COc1ccc(S(=O)(=O)N(C)CCOCC(=O)N2CCC(O)(Cc3ccccc3)CC2)cc1 [Example 28, N-{2-[2-(4-benzyl-4-hydroxy-piperidin-1-yl)-2-oxo-ethoxy]-ethyl}-4-methoxy-N-methyl-phenylsulfonamide] | 8.5
COc1ccc(S(=O)(=O)N2CCCCC2CCOCC(=O)N2CCC(O)(Cc3ccccc3)CC2)cc1 (stereo not shown) [Example 29, 1-(4-benzyl-4-hydroxy-piperidin-1-yl)-2-{2-[1-(4-methoxy-phenylsulfonyl)-piperidin-2-yl]-ethoxy}-ethanone] | 7.66
O=C(COC1CCN(S(=O)(=O)c2ccc(Cl)cc2)C1)N1CCC(O)(Cc2ccccc2)CC1 (stereo not shown) [Example 31, 1-(4-benzyl-4-hydroxy-piperidin-1-yl)-2-[1-(4-chloro-phenylsulfonyl)-pyrrolidin-3-yloxy]-ethanone] | 6.81
O=C(COCCN1CCN(S(=O)(=O)c2ccccc2)CC1)N1CCC(O)(Cc2ccccc2)CC1 [Example 32, 2-[2-(4-phenylsulfonyl-piperazin-1-yl)-ethoxy]-1-(4-benzyl-4-hydroxy-piperidin-1-yl)-ethanone] | 6.63
COc1ccc(S(=O)(=O)N2CCCCC2COCC(=O)N2CCC(O)(Cc3ccccc3)CC2)cc1 (stereo not shown) [Example 35, 1-(4-benzyl-4-hydroxy-piperidin-1-yl)-2-[1-(4-methoxy-phenylsulfonyl)-piperidin-2-ylmethoxy]-ethanone] | 5.08
O=C(COCC1CCCN1S(=O)(=O)c1ccc(Cl)c(Cl)c1)N1CCC(O)(c2ccccn2)CC1 (stereo not shown) [Example 36, 2-[1-(3,4-dichloro-phenylsulfonyl)-pyrrolidin-2-ylmethoxy]-1-(4′-hydroxy-3′,4′,5′,6′-tetrahydro-2′H-[2,4′]bipyridinyl-1′-yl)-ethanone] | 3.64
O=C(COC1CCN(S(=O)(=O)c2ccccc2)CC1)N1CCC(O)(Cc2ccccc2)CC1 [Example 37, 2-(1-phenylsulfonyl-piperidin-4-yloxy)-1-(4-benzyl-4-hydroxy-piperidin-1-yl)-ethanone] | 3.4
CN(CCOCC(=O)N1CCC(O)(Cc2ccccc2)CC1)S(=O)(=O)c1cccc(C(F)(F)F)c1 [Example 38, N-{2-[2-(4-benzyl-4-hydroxy-piperidin-1-yl)-2-oxo-ethoxy]-ethyl}-N-methyl-3-trifluoromethyl-phenylsulfonamide] | 3.28
CN(CCOCC(=O)N1CCC(O)(Cc2ccccc2)CC1)S(=O)(=O)c1ccccc1 [Example 39, N-{2-[2-(4-benzyl-4-hydroxy-piperidin-1-yl)-2-oxo-ethoxy]-ethyl}-N-methyl-phenylsulfonamide] | 2.99
COc1cc(C)c(S(=O)(=O)N2CCC(CCOCC(=O)N3CCC(O)(c4ccccn4)CC3)CC2)c(C)c1C [Example 45, 1-(4′-hydroxy-3′,4′,5′,6′-tetrahydro-2′H-[2,4′]bipyridinyl-1′-yl)-2-{2-[1-(4-methoxy-2,3,6-trimethyl-phenylsulfonyl)-piperidin-4-yl]-ethoxy}-ethanone] | -2.48
O=C(COC1CCN(S(=O)(=O)c2ccccc2)CC1)N1CCC(O)(c2cccnc2)CC1 [Example 46, 2-(1-phenylsulfonyl-piperidin-4-yloxy)-1-(4′-hydroxy-3′,4′,5′,6′-tetrahydro-2′H-[3,4′]bipyridinyl-1′-yl)-ethanone] | -3.51
